Values after ≈ are worked out from the molar mass of the structure shown.
Columns and labels:
[1] = test system: Candida albicans; assay: Antifungal activity against fluconazole-resistant Candida albicans CaR measured after 24 hrs by micro-broth dilution assay; type: functional
[2] = test system: Candida albicans; assay: Antifungal activity against Candida albicans CPCC400616 measured after 24 hrs by micro-broth dilution assay; type: functional
[3] = Ratio of MFC for fungicidal activity against Candida albicans CPCC400616 to MIC for Antifungal activity against Candida albicans CPCC400616; type: functional; settings: time 24 hrs
[4] = test system: Aspergillus fumigatus; assay: Antifungal activity against Aspergillus fumigatus CGMCC 3.7795 measured after 72 hrs by micro-broth dilution assay; type: functional
[5] = test system: Candida albicans; assay: Antifungal activity against fluconazole-resistant Candida albicans 632 measured after 24 hrs by micro-broth dilution assay; type: functional
[6] = test system: Candida albicans; assay: Antifungal activity against Candida albicans ATCC SC5314 measured after 24 hrs by micro-broth dilution assay; type: functional
[7] = test system: Candida albicans; assay: Antifungal activity against fluconazole-resistant Candida albicans 17 measured after 24 hrs by micro-broth dilution assay; type: functional
[8] = test system: Candida parapsilosis; assay: Antifungal activity against Candida parapsilosis ATCC 22019 measured after 24 hrs by micro-broth dilution assay; type: functional; settings: Lodderomyces parapsilosis
[9] = test system: Candida albicans; assay: Antifungal activity against fluconazole-resistant Candida albicans strain 904 measured after 24 hrs by micro-broth dilution assay; type: functional
[10] = test system: Nakaseomyces glabratus; assay: Antifungal activity against clinical isolate Candida glabrata measured after 24 hrs by micro-broth dilution assay; type: functional
[11] = test system: Candida albicans; assay: Fungicidal activity against Candida albicans CPCC400616 measured after 48 hrs; type: functional
[12] = test system: [Candida] zeylanoides; assay: Antifungal activity against Candida zeylanoides CMGCC2.3739 measured after 24 hrs by micro-broth dilution assay; type: functional; settings: Dujonia zeylanoides
[13] = test system: Cryptococcus neoformans; assay: Antifungal activity against Cryptococcus neoformans CGMCC2.3161 measured after 72 hrs by micro-broth dilution assay; type: functional
[14] = test system: Candida albicans; assay: Antifungal activity against Candida albicans 901 measured after 24 hrs by micro-broth dilution assay; type: functional
[15] = test system: Pichia kudriavzevii; assay: Antifungal activity against Candida krusei AS 2.1045 measured after 24 hrs by micro-broth dilution assay; type: functional
[16] = Ratio of hemolysis activity in rabbit RBC to MIC for Candida albicans; type: toxicity; settings: rabbit red blood cells (RBC)

Compound	MIC [1] [µg/mL]	MIC [2] [µg/mL]	MFC/MIC ratio [3]	MIC [4] [µg/mL]	MIC [5] [µg/mL]	MIC [6] [µg/mL]	MIC [7] [µg/mL]	MIC [8] [µg/mL]	MIC [9] [µg/mL]	MIC [10] [µg/mL]	MIC [11] [µg/mL]	MIC [12] [µg/mL]	MIC [13] [µg/mL]	MIC [14] [µg/mL]	MIC [15] [µg/mL]	selectivity ratio [16]
Clc1ccc(C(Cn2ccnc2)[Se]Cc2ccccc2Br)c(Cl)c1 (configuration not stated)	0.5 (≈ 1.02 µM)	0.02 (≈ 0.0409 µM)	16	1 (≈ 2.04 µM)	1 (≈ 2.04 µM)	0.01 (≈ 0.0204 µM)	0.5 (≈ 1.02 µM)	0.03 (≈ 0.0613 µM)	0.25 (≈ 0.511 µM)	0.5 (≈ 1.02 µM)	0.25 (≈ 0.511 µM)	0.25 (≈ 0.511 µM)	0.5 (≈ 1.02 µM)	1 (≈ 2.04 µM)	0.25 (≈ 0.511 µM)	–
Fc1cccc(C[Se]C(Cn2ccnc2)c2ccc(F)cc2F)c1 (configuration not stated)	4 (≈ 10.1 µM)	0.03 (≈ 0.0759 µM)	–	2 (≈ 5.06 µM)	8 (≈ 20.2 µM)	0.03 (≈ 0.0759 µM)	0.06 (≈ 0.152 µM)	0.25 (≈ 0.632 µM)	1 (≈ 2.53 µM)	0.5 (≈ 1.26 µM)	> 128	1 (≈ 2.53 µM)	0.5 (≈ 1.26 µM)	8 (≈ 20.2 µM)	0.13 (≈ 0.329 µM)	–
Fc1ccc(C(Cn2ccnc2)[Se]Cc2ccc(Cl)cc2Cl)c(F)c1 (configuration not stated)	16 (≈ 35.9 µM)	0.03 (≈ 0.0672 µM)	4	0.5 (≈ 1.12 µM)	2 (≈ 4.48 µM)	0.13 (≈ 0.291 µM)	1 (≈ 2.24 µM)	0.03 (≈ 0.0672 µM)	2 (≈ 4.48 µM)	1 (≈ 2.24 µM)	0.125 (≈ 0.28 µM)	0.5 (≈ 1.12 µM)	0.25 (≈ 0.56 µM)	0.5 (≈ 1.12 µM)	0.06 (≈ 0.134 µM)	64
Clc1ccc(C(Cn2ccnc2)[Se]Cc2ccccc2)c(Cl)c1 (configuration not stated)	4 (≈ 9.75 µM)	0.06 (≈ 0.146 µM)	–	0.5 (≈ 1.22 µM)	2 (≈ 4.88 µM)	0.02 (≈ 0.0488 µM)	4 (≈ 9.75 µM)	0.25 (≈ 0.609 µM)	0.5 (≈ 1.22 µM)	0.5 (≈ 1.22 µM)	–	0.5 (≈ 1.22 µM)	0.5 (≈ 1.22 µM)	1 (≈ 2.44 µM)	0.5 (≈ 1.22 µM)	–
Cc1cccc(C[Se]C(Cn2ccnc2)c2ccc(Cl)cc2Cl)c1 (configuration not stated)	4 (≈ 9.43 µM)	0.03 (≈ 0.0707 µM)	–	8 (≈ 18.9 µM)	2 (≈ 4.71 µM)	0.03 (≈ 0.0707 µM)	4 (≈ 9.43 µM)	1 (≈ 2.36 µM)	2 (≈ 4.71 µM)	0.5 (≈ 1.18 µM)	–	16 (≈ 37.7 µM)	0.25 (≈ 0.589 µM)	2 (≈ 4.71 µM)	4 (≈ 9.43 µM)	–
Cc1cccc(C[Se]C(Cn2ccnc2)c2ccc(F)cc2F)c1 (configuration not stated)	2 (≈ 5.11 µM)	0.13 (≈ 0.332 µM)	–	2 (≈ 5.11 µM)	16 (≈ 40.9 µM)	0.06 (≈ 0.153 µM)	8 (≈ 20.4 µM)	0.25 (≈ 0.639 µM)	1 (≈ 2.56 µM)	1 (≈ 2.56 µM)	–	1 (≈ 2.56 µM)	0.5 (≈ 1.28 µM)	4 (≈ 10.2 µM)	1 (≈ 2.56 µM)	–
Cc1ccc(C[Se]C(Cn2ccnc2)c2ccc(Cl)cc2Cl)cc1C (configuration not stated)	128 (≈ 292 µM)	0.25 (≈ 0.57 µM)	–	4 (≈ 9.13 µM)	16 (≈ 36.5 µM)	4 (≈ 9.13 µM)	8 (≈ 18.3 µM)	> 128	128 (≈ 292 µM)	0.5 (≈ 1.14 µM)	–	128 (≈ 292 µM)	0.5 (≈ 1.14 µM)	32 (≈ 73 µM)	128 (≈ 292 µM)	–
Cc1ccc(C[Se]C(Cn2ccnc2)c2ccc(F)cc2F)cc1 (configuration not stated)	16 (≈ 40.9 µM)	0.25 (≈ 0.639 µM)	–	1 (≈ 2.56 µM)	16 (≈ 40.9 µM)	0.06 (≈ 0.153 µM)	2 (≈ 5.11 µM)	0.25 (≈ 0.639 µM)	4 (≈ 10.2 µM)	1 (≈ 2.56 µM)	–	0.5 (≈ 1.28 µM)	0.5 (≈ 1.28 µM)	1 (≈ 2.56 µM)	2 (≈ 5.11 µM)	–
Fc1ccc(C(Cn2ccnc2)[Se]Cc2ccccc2Cl)c(F)c1 (configuration not stated)	2 (≈ 4.86 µM)	0.25 (≈ 0.607 µM)	–	2 (≈ 4.86 µM)	0.5 (≈ 1.21 µM)	0.01 (≈ 0.0243 µM)	1 (≈ 2.43 µM)	0.06 (≈ 0.146 µM)	0.5 (≈ 1.21 µM)	1 (≈ 2.43 µM)	–	0.25 (≈ 0.607 µM)	0.5 (≈ 1.21 µM)	1 (≈ 2.43 µM)	0.25 (≈ 0.607 µM)	–
Fc1cccc(C[Se]C(Cn2ccnc2)c2ccc(Cl)cc2Cl)c1 (configuration not stated)	1 (≈ 2.34 µM)	0.03 (≈ 0.0701 µM)	–	2 (≈ 4.67 µM)	1 (≈ 2.34 µM)	0.03 (≈ 0.0701 µM)	0.5 (≈ 1.17 µM)	0.02 (≈ 0.0467 µM)	0.25 (≈ 0.584 µM)	0.5 (≈ 1.17 µM)	–	1 (≈ 2.34 µM)	0.25 (≈ 0.584 µM)	0.25 (≈ 0.584 µM)	2 (≈ 4.67 µM)	–
Fc1ccc(C(Cn2ccnc2)[Se]Cc2ccccc2Br)c(F)c1 (configuration not stated)	0.13 (≈ 0.285 µM)	0.02 (≈ 0.0438 µM)	8	1 (≈ 2.19 µM)	0.25 (≈ 0.548 µM)	0.01 (≈ 0.0219 µM)	0.06 (≈ 0.132 µM)	0.02 (≈ 0.0438 µM)	0.06 (≈ 0.132 µM)	1 (≈ 2.19 µM)	0.125 (≈ 0.274 µM)	0.25 (≈ 0.548 µM)	0.25 (≈ 0.548 µM)	0.25 (≈ 0.548 µM)	0.06 (≈ 0.132 µM)	512

— ChEMBL document CHEMBL4765323, “Design, synthesis, and biological evaluation of novel miconazole analogues containing selenium as potent antifungal agents” (Eur J Med Chem, 2020)
